Results taken from ChEMBL document CHEMBL6127139, “Lysine-Targeted Covalent Inhibitors of PI3Kδ Synthesis and Screening by In Situ Interaction Upgradation” (J Med Chem, 2024).
The source made the active and inactive calls. The rule behind the calls is not given here.

Legend:
[1] = target: T1, Phosphatidylinositol 4,5-bisphosphate 3-kinase catalytic subunit delta isoform (Homo sapiens, UniProt O00329); experiment: Inhibition of recombinant PI3Kdelta (unknown origin) using PIP2:3PS as substrate preincubated for 20 mins followed by ATP addition and measured after 1 hrs by ADP-Glo reagent based assay
T1 sequence (O00329 whole entry): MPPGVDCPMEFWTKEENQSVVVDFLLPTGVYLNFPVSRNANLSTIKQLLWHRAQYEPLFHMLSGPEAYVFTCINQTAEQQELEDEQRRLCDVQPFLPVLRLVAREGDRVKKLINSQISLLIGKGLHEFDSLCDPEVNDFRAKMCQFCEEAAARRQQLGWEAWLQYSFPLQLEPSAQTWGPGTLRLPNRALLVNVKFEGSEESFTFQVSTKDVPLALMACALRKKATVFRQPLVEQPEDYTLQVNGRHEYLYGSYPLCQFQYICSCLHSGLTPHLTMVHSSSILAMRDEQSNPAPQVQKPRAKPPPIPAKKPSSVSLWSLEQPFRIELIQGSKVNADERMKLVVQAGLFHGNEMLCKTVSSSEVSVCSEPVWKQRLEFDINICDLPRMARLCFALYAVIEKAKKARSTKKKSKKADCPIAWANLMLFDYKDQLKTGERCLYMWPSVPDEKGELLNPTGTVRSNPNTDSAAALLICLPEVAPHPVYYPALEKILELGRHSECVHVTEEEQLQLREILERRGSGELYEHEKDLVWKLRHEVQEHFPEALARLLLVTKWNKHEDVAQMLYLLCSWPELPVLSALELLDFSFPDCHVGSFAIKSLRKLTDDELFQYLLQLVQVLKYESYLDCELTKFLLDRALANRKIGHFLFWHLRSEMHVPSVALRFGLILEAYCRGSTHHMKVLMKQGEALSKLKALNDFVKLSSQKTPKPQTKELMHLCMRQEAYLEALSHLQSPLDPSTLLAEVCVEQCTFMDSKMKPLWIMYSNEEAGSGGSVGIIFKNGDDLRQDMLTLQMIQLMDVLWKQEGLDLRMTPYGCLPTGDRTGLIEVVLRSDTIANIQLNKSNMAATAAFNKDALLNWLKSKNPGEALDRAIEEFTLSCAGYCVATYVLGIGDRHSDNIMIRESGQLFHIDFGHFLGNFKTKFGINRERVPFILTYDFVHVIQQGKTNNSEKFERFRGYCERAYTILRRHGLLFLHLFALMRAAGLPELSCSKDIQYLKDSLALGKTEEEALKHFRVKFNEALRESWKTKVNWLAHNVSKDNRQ

[2] = Chemical reactivity of the compound with N-Boc-Lysine assessed as half-life at 1 uM by HPLC analysis; type: physicochemical; settings: incubation with N-Boc-Lysine
[3] = Growth inhibition of PI3Kdelta-overexpressing human Pfeiffer cells incubated for 72 hrs by MTT assay; type: functional
[4] = Growth inhibition of PI3Kdelta-overexpressing human SU-DHL-6 cells incubated for 72 hrs by MTT assay; type: functional
[5] = target: Phosphatidylinositol 4,5-bisphosphate 3-kinase catalytic subunit alpha isoform (Homo sapiens, UniProt P42336); experiment: Inhibition of recombinant PI3Kalpha (unknown origin) using PIP2:3PS as substrate preincubated for 20 mins followed by ATP addition and measured after 1 hrs by ADP-Glo reagent based assay
Sequence of Phosphatidylinositol 4,5-bisphosphate 3-kinase catalytic subunit alpha isoform (P42336 whole entry, canonical isoform): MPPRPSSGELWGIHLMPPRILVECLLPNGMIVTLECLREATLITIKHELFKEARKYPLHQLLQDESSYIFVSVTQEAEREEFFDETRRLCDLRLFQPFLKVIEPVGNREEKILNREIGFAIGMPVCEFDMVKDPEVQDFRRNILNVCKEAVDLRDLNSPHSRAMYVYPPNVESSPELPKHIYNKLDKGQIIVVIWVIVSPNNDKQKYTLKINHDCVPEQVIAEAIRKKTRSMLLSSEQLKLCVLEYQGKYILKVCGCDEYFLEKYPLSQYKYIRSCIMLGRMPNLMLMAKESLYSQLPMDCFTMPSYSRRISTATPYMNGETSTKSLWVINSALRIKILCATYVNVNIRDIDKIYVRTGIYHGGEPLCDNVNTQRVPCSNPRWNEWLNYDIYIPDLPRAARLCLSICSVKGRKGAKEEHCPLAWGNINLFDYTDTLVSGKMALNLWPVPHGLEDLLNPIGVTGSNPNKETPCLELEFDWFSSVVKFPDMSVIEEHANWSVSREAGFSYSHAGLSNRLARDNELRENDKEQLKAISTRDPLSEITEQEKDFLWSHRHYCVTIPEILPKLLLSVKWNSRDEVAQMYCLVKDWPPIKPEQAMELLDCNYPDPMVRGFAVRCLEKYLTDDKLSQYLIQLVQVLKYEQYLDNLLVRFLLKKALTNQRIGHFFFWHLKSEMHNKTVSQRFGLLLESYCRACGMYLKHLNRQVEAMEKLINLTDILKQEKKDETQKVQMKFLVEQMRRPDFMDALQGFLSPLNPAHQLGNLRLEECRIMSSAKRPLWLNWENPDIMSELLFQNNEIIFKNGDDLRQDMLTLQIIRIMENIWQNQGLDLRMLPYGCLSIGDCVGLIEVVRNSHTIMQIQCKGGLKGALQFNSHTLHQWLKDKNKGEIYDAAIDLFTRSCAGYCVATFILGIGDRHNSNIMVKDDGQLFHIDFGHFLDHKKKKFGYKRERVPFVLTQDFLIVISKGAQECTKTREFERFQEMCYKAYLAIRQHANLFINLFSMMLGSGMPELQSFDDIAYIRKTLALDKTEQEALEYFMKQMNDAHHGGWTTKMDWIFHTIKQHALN

[6] = test system: Raji; experiment: Growth inhibition of human Raji cells incubated for 72 hrs by MTT assay; type: functional
[7] = test system: HCT-116; experiment: Growth inhibition of human HCT-116 cells incubated for 72 hrs by MTT assay; type: functional
[8] = test system: SU-DHL-6; experiment: Antiproliferative activity against human SU-DHL-6 cells assessed as inhibition of cell viability preincubated for 12 hrs followed by compound washout and measured after 60 hrs by MTT assay; type: functional, cell-based
[9] = target: Phosphatidylinositol 4,5-bisphosphate 3-kinase catalytic subunit beta isoform (Homo sapiens, UniProt P42338); experiment: Inhibition of recombinant PI3Kbeta (unknown origin) using PIP2:3PS as substrate preincubated for 20 mins followed by ATP addition and measured after 1 hrs by ADP-Glo reagent based assay
Sequence of Phosphatidylinositol 4,5-bisphosphate 3-kinase catalytic subunit beta isoform (P42338 whole entry, canonical isoform): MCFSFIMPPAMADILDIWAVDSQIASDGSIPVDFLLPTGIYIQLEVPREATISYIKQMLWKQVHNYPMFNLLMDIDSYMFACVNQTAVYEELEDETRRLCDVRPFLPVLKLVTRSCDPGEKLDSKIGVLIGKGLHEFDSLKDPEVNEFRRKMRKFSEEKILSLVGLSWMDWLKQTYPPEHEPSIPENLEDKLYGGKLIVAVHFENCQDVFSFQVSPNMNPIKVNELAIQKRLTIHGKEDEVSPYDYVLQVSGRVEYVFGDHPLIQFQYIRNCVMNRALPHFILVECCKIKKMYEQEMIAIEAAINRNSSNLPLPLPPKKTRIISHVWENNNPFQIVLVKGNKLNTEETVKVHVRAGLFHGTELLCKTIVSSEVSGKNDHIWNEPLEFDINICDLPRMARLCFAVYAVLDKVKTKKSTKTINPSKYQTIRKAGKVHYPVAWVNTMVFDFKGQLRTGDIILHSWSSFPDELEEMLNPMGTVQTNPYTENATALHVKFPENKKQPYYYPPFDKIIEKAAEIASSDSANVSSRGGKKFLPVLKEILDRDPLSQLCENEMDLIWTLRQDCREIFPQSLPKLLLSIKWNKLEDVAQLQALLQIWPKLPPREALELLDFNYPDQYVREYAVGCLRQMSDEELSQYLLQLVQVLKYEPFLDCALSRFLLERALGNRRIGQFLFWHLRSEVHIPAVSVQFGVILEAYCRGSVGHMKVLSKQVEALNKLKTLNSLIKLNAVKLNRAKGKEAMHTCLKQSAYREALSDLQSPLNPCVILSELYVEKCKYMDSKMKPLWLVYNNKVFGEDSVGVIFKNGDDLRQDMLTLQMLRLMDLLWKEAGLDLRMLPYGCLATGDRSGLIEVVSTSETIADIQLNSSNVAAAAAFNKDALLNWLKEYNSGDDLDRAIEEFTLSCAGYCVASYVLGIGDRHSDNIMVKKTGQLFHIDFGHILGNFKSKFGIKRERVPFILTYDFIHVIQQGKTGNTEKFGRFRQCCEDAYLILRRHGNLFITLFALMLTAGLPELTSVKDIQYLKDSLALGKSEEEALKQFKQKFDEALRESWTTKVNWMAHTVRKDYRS

[10] = target: Phosphatidylinositol 4,5-bisphosphate 3-kinase catalytic subunit gamma isoform (Homo sapiens, UniProt P48736); experiment: Inhibition of recombinant PI3Kgamma (unknown origin) using PIP2:3PS as substrate preincubated for 20 mins followed by ATP addition and measured after 1 hrs by ADP-Glo reagent based assay
Sequence of Phosphatidylinositol 4,5-bisphosphate 3-kinase catalytic subunit gamma isoform (P48736 whole entry, canonical isoform): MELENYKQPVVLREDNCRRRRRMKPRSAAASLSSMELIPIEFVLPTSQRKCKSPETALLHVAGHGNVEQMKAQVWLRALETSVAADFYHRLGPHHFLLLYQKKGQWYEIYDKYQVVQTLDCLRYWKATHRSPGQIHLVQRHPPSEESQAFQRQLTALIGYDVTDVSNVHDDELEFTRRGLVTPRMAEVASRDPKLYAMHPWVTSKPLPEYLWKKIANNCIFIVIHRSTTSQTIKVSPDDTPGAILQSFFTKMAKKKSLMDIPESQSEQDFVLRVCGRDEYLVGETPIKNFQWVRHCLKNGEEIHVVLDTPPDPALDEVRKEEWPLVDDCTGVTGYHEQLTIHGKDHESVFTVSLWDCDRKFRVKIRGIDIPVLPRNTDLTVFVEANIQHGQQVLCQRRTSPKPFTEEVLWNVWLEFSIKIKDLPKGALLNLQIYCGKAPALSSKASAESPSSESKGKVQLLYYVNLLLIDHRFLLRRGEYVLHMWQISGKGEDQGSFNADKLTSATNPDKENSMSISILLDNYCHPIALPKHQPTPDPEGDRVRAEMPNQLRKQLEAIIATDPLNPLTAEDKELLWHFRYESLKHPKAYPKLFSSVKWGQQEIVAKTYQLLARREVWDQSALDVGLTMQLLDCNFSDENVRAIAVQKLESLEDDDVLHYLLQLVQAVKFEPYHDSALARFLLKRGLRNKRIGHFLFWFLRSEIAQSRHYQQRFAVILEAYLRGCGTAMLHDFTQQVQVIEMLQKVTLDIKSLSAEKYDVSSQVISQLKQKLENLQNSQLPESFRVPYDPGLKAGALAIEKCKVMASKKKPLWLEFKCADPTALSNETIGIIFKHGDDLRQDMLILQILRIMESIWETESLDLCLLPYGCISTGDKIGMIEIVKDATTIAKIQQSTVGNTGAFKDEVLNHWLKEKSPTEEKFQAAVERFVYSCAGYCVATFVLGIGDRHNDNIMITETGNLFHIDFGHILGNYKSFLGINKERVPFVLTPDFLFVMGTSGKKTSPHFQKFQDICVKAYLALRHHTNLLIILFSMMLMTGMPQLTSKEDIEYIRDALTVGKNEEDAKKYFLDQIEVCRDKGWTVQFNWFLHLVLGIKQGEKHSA

[11] = Selectivity index, ratio of IC50 for inhibition of recombinant PI3Kgamma (unknown origin) using PIP2:3PS as substrate to IC50 for inhibition of recombinant PI3Kdelta (unknown origin) using PIP2:3PS as substrate
[12] = test system: SU-DHL-6; experiment: Inhibition of AKT phosphorylation in human SU-DHL-6 cells preincubated for 12 hrs followed by compound washout and measured upto 72 hrs by Western blot analysis; type: cell-based
[13] = test system: MCF7; experiment: Growth inhibition of human MCF7 cells incubated for 72 hrs by MTT assay; type: functional
[14] = Selectivity index, ratio of IC50 for inhibition of recombinant PI3Kalpha (unknown origin) using PIP2:3PS as substrate to IC50 for inhibition of recombinant PI3Kdelta (unknown origin) using PIP2:3PS as substrate
[15] = test system: SU-DHL-6; experiment: Inhibition of AKT phosphorylation in human SU-DHL-6 cells preincubated for 12 hrs followed by compound washout and measured after 24 hrs by Western blot analysis; type: cell-based
[16] = Selectivity index, ratio of IC50 for inhibition of recombinant PI3Kbeta (unknown origin) using PIP2:3PS as substrate to IC50 for inhibition of recombinant PI3Kdelta (unknown origin) using PIP2:3PS as substrate
[17] = target: T2, Phosphatidylinositol 4,5-bisphosphate 3-kinase catalytic subunit delta isoform (Homo sapiens) (UniProt O00329); experiment: Potency index, ratio of idelalisib IC50 to test compound IC50 for inhibition of recombinant PI3Kdelta (unknown origin) using PIP2:3PS as substrate preincubated for 20 mins followed by ATP addition and measured after 1 hrs by ADP-Glo reagent based assay; settings: time 80.0 min
T2 sequence (whole entry): T1 sequence (O00329 whole entry)

[18] = test system: SU-DHL-6; experiment: Inhibition of AKT phosphorylation in human SU-DHL-6 cells incubated for 24 hrs by Western blot analysis; type: cell-based; settings: dose 10-1000 nM
[19] = Selectivity ratio of GI50 for human HCT-116 cells to GI50 for PI3Kdelta overexpressing human SU-DHL-6; type: functional
[20] = test system: SU-DHL-6; experiment: Potency index, ratio of idelalisib GI50 to test compound GI50 for growth inhibition of PI3Kdelta-overexpressing human SU-DHL-6 cells incubated for 72 hrs by MTT assay; type: functional
[21] = Stability of compound in water/acetonitrile solution incubated for 24 hrs by HPLC analysis; type: physicochemical; settings: buffer
[22] = Stability of compound in PBS at pH 7.4 incubated for 24 hrs at 37 degreeC by HPLC analysis; type: physicochemical; settings: buffer, pH 7.4, 24 h
[23] = target: T2, Phosphatidylinositol 4,5-bisphosphate 3-kinase catalytic subunit delta isoform (Homo sapiens); experiment: Covalent inhibition of PI3Kdelta (unknown origin) using PIP2:3PS as substrate assessed as second order rate constant (Kinact/Ki ratio) incubated upto 180 mins in presence of ATP by ADP-Glo reagent based assay

Structure (SMILES)	IC50 [1]	half-life at 1 µM [2]	GI50 [3]	GI50 [4]	IC50 [5]	other results
COc1ncc(-c2ccc3ncnc(N[C@H]4CCN(C(=O)C5CCOCC5)C4)c3n2)cc1C(=O)Oc1cccnc1	0.7 nM	2.8 min	662 nM	122 nM	254 nM	–
COc1ccc(OC(=O)c2cc(-c3ccc4ncnc(N[C@H]5CCN(C(=O)C6CCOCC6)C5)c4n3)cnc2OC)cc1	1.17 nM	359 min	138 nM	8 nM	54.2 nM	–
COc1ncc(-c2ccc3ncnc(N[C@H]4CCN(C(=O)C5CCOCC5)C4)c3n2)cc1C(=O)Oc1ccc(F)cc1F	3.19 nM	3.2 min	420 nM	31 nM	29.8 nM	–
COc1ncc(-c2ccc3ncnc(N[C@H]4CCN(C(=O)C5CCOCC5)C4)c3n2)cc1C(=O)Oc1ccc(Cl)cc1	2.57 nM	10.1 min	776 nM	157 nM	> 1000 nM	–
COc1ncc(-c2ccc3ncnc(N[C@H]4CCN(C(=O)C5CCOCC5)C4)c3n2)cc1C(=O)Oc1ccc(F)cc1	4.45 nM	55 min	97 nM	4 nM	14.1 nM	GI50 [6]: 6610 nM; GI50 [7]: 2140 nM; Activity [8]: Active; IC50 [9]: 241 nM; IC50 [10]: 63.7 nM; Ratio IC50 [11]: 14; inhibition [12]: Active; GI50 [13]: 6330 nM; Ratio IC50 [14]: 3; inhibition [15]: Active
COc1ncc(-c2ccc3ncnc(N[C@H]4CCN(C(=O)C5CCOCC5)C4)c3c2)cc1C(=O)Oc1ccc(Cl)cc1Cl	1.5 nM	1.2 min	346 nM	142 nM	347 nM	–
COc1ncc(-c2ccc3ncnc(N[C@H]4CCN(C(=O)C5CCOCC5)C4)c3c2)cc1C(=O)Oc1ccccc1	0.53 nM	144 min	195 nM	3 nM	66 nM	Ratio IC50 [16]: 292; Ratio IC50 [17]: 10; GI50 [6]: 8200 nM; inhibition [18]: Dose-Dependent Effect; GI50 [7]: 1900 nM; Activity [8]: Active; IC50 [9]: 155 nM; IC50 [10]: 656 nM; Ratio IC50 [11]: > 1000; inhibition [12]: Active; GI50 [13]: > 10000 nM; RatioGI50 [19]: 2500; RatioGI50 [20]: ~10; Ratio IC50 [14]: 124; inhibition [15]: Active; Stability [21]: Stable; Stability [22]: Stable
COc1ncc(-c2ccc3ncnc(N[C@H]4CCN(C(=O)C5CCOCC5)C4)c3c2)cc1C(=O)Oc1ccc(F)cc1	2.24 nM	67 min	130 nM	3 nM	25.6 nM	Ratio IC50 [16]: 13; GI50 [6]: 7590 nM; GI50 [7]: 1520 nM; Activity [8]: Active; IC50 [9]: 30 nM; IC50 [10]: 208 nM; Ratio IC50 [11]: 92; inhibition [12]: Active; GI50 [13]: > 10000 nM; Ratio IC50 [14]: 11; inhibition [15]: Active
COc1ncc(-c2ccc3ncnc(N[C@H]4CCN(C(=O)C5CCOCC5)C4)c3c2)cc1C(=O)Oc1ccc(C#N)cc1	4.53 nM	< 1 min	479 nM	27 nM	> 1000 nM	–
COc1ncc(-c2ccc3ncnc(N[C@H]4CCN(C(=O)C5CCOCC5)C4)c3c2)cc1C(=O)Oc1cccnc1	0.26 nM	2.5 min	199 nM	19 nM	663 nM	–
COc1ncc(-c2cc(-c3ncc(CN4CCN(C(C)C)CC4)o3)c3cn[nH]c3c2)cc1C(=O)Oc1ccc(F)cc1	–	–	–	–	–	Ratio [23]: 3.75 10^4/M/s
COc1ncc(-c2ccc3ncnc(N[C@H]4CCN(C(=O)C5CCOCC5)C4)c3n2)cc1C(=O)Oc1ccc(C(F)(F)F)cc1	1.01 nM	1.7 min	1260 nM	96 nM	93.3 nM	–
COc1ncc(-c2ccc3ncnc(N[C@H]4CCN(C(=O)C5CCOCC5)C4)c3c2)cc1C(=O)Oc1ccc(Cl)cc1	0.79 nM	12.7 min	276 nM	16 nM	> 1000 nM	–
COC(=O)c1cc(-c2ccc3ncnc(N[C@H]4CCN(C(=O)C5CCOCC5)C4)c3n2)cnc1OC	1.21 nM	> 1440 min	447 nM	42 nM	> 1000 nM	–
COc1ncc(-c2ccc3ncnc(N[C@H]4CCN(C(=O)C5CCOCC5)C4)c3c2)cc1C#N	–	–	–	4550 nM	–	Ratio IC50 [16]: 97; GI50 [6]: > 10000 nM; Ratio IC50 [11]: 64; Ratio IC50 [14]: 9
COc1ncc(-c2ccc3ncnc(N[C@H]4CCN(C(=O)C5CCOCC5)C4)c3c2)cc1C(=O)Oc1c(F)cc(F)cc1F	1.08 nM	< 1 min	260 nM	32 nM	86.9 nM	–
COc1ncc(-c2ccc3ncnc(N[C@H]4CCN(C(=O)C5CCOCC5)C4)c3c2)cc1C(=O)Oc1ccc([N+](=O)[O-])cc1	6.6 nM	< 1 min	575 nM	52 nM	120 nM	–
COc1ncc(-c2ccc3ncnc(N[C@H]4CCN(C(=O)C5CCOCC5)C4)c3n2)cc1C(=O)Oc1c(F)cc(F)cc1F	4.93 nM	< 1 min	438 nM	65 nM	> 1000 nM	–
